Experimental data reported in patent US20240327354A1, “GRAM-NEGATIVE BACTERIA EFFLUX PUMP INHIBITORS” (INSTITUT NATIONAL DE LA SANTÉ ET DE LA RECHERCHE MÉDICALE, priority 2021, published 2024).
pEC50: −log10 of the molar value. Counter-ions that a name gives are not always drawn.

Key:
E. coli BW25113 = assay: Assay 1: growth inhibition of E. coli by sub-inhibitory pyridomycin in combination with examples (resazurin reduction); assay type: cell-based, Escherichia coli; conditions: read-out: EC50 on E. coli with 8 μg/mL of pyridomycin, 8 μg/mL pyridomycin, 5 h, 37° C.
How it was run: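 E. coli BW25113 at OD600 0.0004–0.001 was grown in CAMHB at 37 °C. Viability was read by resazurin reduction fluorescence (Ex 530/Em 590 nm). EC50 is the concentration preventing 50% of resazurin turnover relative to untreated bacteria.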

[1] = system: A. baumannii LMG 1025 (ATCC 17978); assay: Assay 3: growth inhibition of A. baumannii by sub-inhibitory novobiocin in combination with examples (resazurin reduction); assay type: cell-based, Acinetobacter baumannii
Text: (§1) Escherichia coli BW25113 (CGSC 7636) and its derivatives E. coli ΔtolC (JW5503-1, ΔtolC732::kan, CGSC 11430), E. coli ΔacrA (JW0452-3, ΔacrA748::kan, CGSC 11843) and E. coli ΔacrB (JW0451-2, ΔacrB747::kan, CGSC 8609) were obtained from E. coli Genetic Stock Center (CGSC, New Haven, Connecticut) and originated from the Keio Collection (Baba T et al, Mol Sys Biol, 2006). Klebsiella pneumoniae (LMG 2095/ATCC 13883) and K. pneumoniae (ATCC43816), Pseudomonas aeruginosa (PAO1), Acinetobacter baumannii (LMG 1025, ATCC 17978), were obtained from ATCC or BCCM/LMG Bacteria Collection. All bacteria were grown and tested in cation-adjusted Mueller-Hinton broth (CAMHB; BD Difco) at 37° C. For conservation, log phase bacteria were frozen (−80° C.) in CAMHB supplemented with 15% glycerol.
Measurement of growth Inhibition of A. baumannii strains by sub Inhibitory concentrations of novobiocin In combination with examples 1-137
(§2) For the evaluation of the dose dependent activity of examples 1-137, their ability to boost the antibacterial activity of sub-inhibitory concentrations novobiocin was determined. Briefly, A. baumannii LMG 1025 (ATCC 17978) were diluted from frozen or growing stocks to an OD600 of 0.001 in CAMHB. The bacterial suspension was then used as such (no—antibiotic control to evaluate EPI activity), or spiked with novobiocin at a final concentration of 5 μg/mL. Bacteria were then added to microplates carrying serial dilutions of the compounds examples 1-137, and incubated for (5 h or 24 h, 37° C.). Bacterial viability was evaluated using the resazurin reduction assay, and measured by fluorescence (POLARstar Omega, BMG Labtech: Ex: 530 nm Em: 590 nm). […] were defined as the compound concentration that prevented 90% of resazurin turnover compared to the non-treated bacteria.

[2] = system: A. baumannii LMG 1025 (ATCC 17978); assay: Assay 2: growth inhibition of A. baumannii by sub-inhibitory chloramphenicol in combination with examples (resazurin reduction); assay type: cell-based, Acinetobacter baumannii; conditions: read-out: EC90 on A. baumannii with 10 μg/mL of chloramphenicol, 10 μg/mL chloramphenicol, 5 h or 24 h, 37° C.
Text: as §1
Measurement of Growth Inhibition of A. baumannii Strains by Sub Inhibitory Concentrations of Chloramphenicol in Combination with Examples 1-137
as §2, with “concentrations chloramphenicol” for “concentrations novobiocin”, “such (no-antibiotic” for “such (no—antibiotic”, “with chloramphenicol” for “with novobiocin”, “of 10” for “of 5”

[3] = 5 μg/mL novobiocin, 5 h or 24 h, 37° C., read-out: EC90 on A. baumannii with 5 μg/mL of novobiocin

SMILES | pEC50 (E. coli BW25113) | EC90 [1, 3] | EC90 [2] | EC90 ([1]; read-out: EC90 on A. baumannii with 5 μg/mL of novobiocin, 5 μg/mL novobiocin, 5 h or 24 h, 37° C.)
COc1ccc(CN)cc1-c1ccc2nc(N3CCNCC3)c(Cl)cc2c1 [Example 120, [3-(3-chloro-2-piperazin-1-yl-6-quinolyl)-4-methoxy-phenyl]methanamine;dihydrochloride] | > 5.30 | 5 to 100 µM | – | –
COc1cc(CN)cc(-c2ccc3nc(N4CCNCC4)c(Cl)cc3c2)c1 [Example 124, [3-(3-chloro-2-piperazin-1-yl-6-quinolyl)-5-methoxy-phenyl]methanamine;dihydrochloride] | > 5.30 | 5 to 100 µM | – | –
NCc1ccc(Cl)c(-c2ccc3nc(N4CCNCC4)c(Cl)cc3c2)c1 [Example 121, [4-chloro-3-(3-chloro-2-piperazin-1-yl-6-quinolyl)phenyl]methanamine;dihydrochloride] | > 5.30 | 5 to 100 µM | – | –
C[C@H](N)c1cccc(-c2ccc3nc(N4CCNCC4)c(Cl)cc3c2)c1 [Example 112, (1S)-1-[3-(3-chloro-2-piperazin-1-yl-6-quinolyl)phenyl]ethanamine; dihydrochloride] | > 5.30 | 5 to 100 µM | – | –
Cc1ccc(CN)cc1-c1ccc2nc(N3CCNCC3)c(Cl)cc2c1 [Example 119, [3-(3-chloro-2-piperazin-1-yl-6-quinolyl)-4-methyl-phenyl]methanamine;dihydrochloride] | > 5.30 | 5 to 100 µM | – | –
NCc1ccc(-c2ccc3nc(N4CCNCC4)c(Cl)cc3c2)cc1 [Example 107, [4-(3-chloro-2-piperazin-1-yl-6-quinolyl)phenyl]methanamine;dihydrochloride] | > 5.30 | 5 to 100 µM | – | –
NCc1cccc(-c2ccc3nc(N4CCNCC4)c(Cl)cc3c2)c1 [Example 66, [3-(3-chloro-2-piperazin-1-yl-6-quinolyl)phenyl]methanamine;dihydrochloride] | > 5.30 | 5 to 100 µM | 5 to 100 µM | –
CN(C)Cc1cccc(-c2ccc3nc(N4CCNCC4)c(Cl)cc3c2)c1 [Example 110, 1-[3-(3-chloro-2-piperazin-1-yl-6-quinolyl)phenyl]-N,N-dimethyl-methanamine;dihydrochloride] | > 5.30 | 5 to 100 µM | – | –
NCCCCNc1ccc2nc(N3CCNCC3)c(Cl)cc2c1 [Example 105, N′-(3-chloro-2-piperazin-1-yl-6-quinolyl)butane-1,4-diamine;dihydrochloride] | > 5.30 | 5 to 100 µM | – | –
Clc1cc2cc(-c3ccc4c(c3)CNC4)ccc2nc1N1CCNCC1 [Example 135, 3-chloro-6-isoindolin-5-yl-2-piperazin-1-yl-quinoline;dihydrochloride] | > 5.30 | 5 to 100 µM | – | –
NCc1cc(-c2ccc3nc(N4CCNCC4)c(Cl)cc3c2)ccc1F [Example 130, [5-(3-chloro-2-piperazin-1-yl-6-quinolyl)-2-fluoro-phenyl]methanamine;dihydrochloride] | > 5.30 | 5 to 100 µM | 5 to 100 µM | –
NCCc1cccc(C#Cc2cnc(N3CCNCC3)c(Cl)c2)c1 [Example 91, 2-[3-[2-(5-chloro-6-piperazin-1-yl-3-pyridyl)ethynyl]phenyl]ethanamine; 2,2,2-trifluoroacetic acid] | > 5.30 | 5 to 100 µM | – | –
CNCc1cccc(-c2ccc3nc(N4CCNCC4)c(Cl)cc3c2)c1 [Example 109, 1-[3-(3-chloro-2-piperazin-1-yl-6-quinolyl)phenyl]-N-methyl-methanamine;dihydrochloride] | > 5.30 | 5 to 100 µM | 5 to 100 µM | –
COc1c(CN)cccc1-c1ccc2nc(N3CCNCC3)c(Cl)cc2c1 [Example 118, [3-(3-chloro-2-piperazin-1-yl-6-quinolyl)-2-methoxy-phenyl]methanamine;dihydrochloride] | > 5.30 | 5 to 100 µM | – | –
Clc1cc2cc(-c3cccc4c3CCNC4)ccc2nc1N1CCNCC1 [Example 133, 3-chloro-2-piperazin-1-yl-6-(1,2,3,4-tetrahydroisoquinolin-5-yl)quinoline;dihydrochloride] | > 5.30 | 5 to 100 µM | – | –
NCCc1ccc(-c2ccc3nc(N4CCNCC4)c(Cl)cc3c2)cc1 [Example 116, 2-[4-(3-chloro-2-piperazin-1-yl-6-quinolyl)phenyl]ethanamine;dihydrochloride] | > 5.30 | 5 to 100 µM | – | –
Brc1cnc(N[C@H]2[C@@H]3CNC[C@@H]32)c2ccccc12 [Example 58, N-[(1R,5S)-3-azabicyclo[3.1.0]hexan-6-yl]-4-bromo-isoquinolin-1-amine;hydrochloride] | 4.00 to 5.30 | 100 to 500 µM | 100 to 500 µM | –
NCc1cc(-c2ccc3nc(N4CCNCC4)c(Cl)cc3c2)ccc1Cl [Example 128, [2-chloro-5-(3-chloro-2-piperazin-1-yl-6-quinolyl)phenyl]methanamine;dihydrochloride] | > 5.30 | 5 to 100 µM | – | –
Cc1c(CN)cccc1-c1ccc2nc(N3CCNCC3)c(Cl)cc2c1 [Example 117, [3-(3-chloro-2-piperazin-1-yl-6-quinolyl)-2-methyl-phenyl]methanamine;dihydrochloride] | > 5.30 | 5 to 100 µM | – | –
COc1ccc(-c2ccc3nc(N4CCNCC4)c(Cl)cc3c2)cc1CN [Example 127, [5-(3-chloro-2-piperazin-1-yl-6-quinolyl)-2-methoxy-phenyl]methanamine;dihydrochloride] | > 5.30 | 5 to 100 µM | – | –
Cc1cc(CN)cc(-c2ccc3nc(N4CCNCC4)c(Cl)cc3c2)c1 [Example 123, [3-(3-chloro-2-piperazin-1-yl-6-quinolyl)-5-methyl-phenyl]methanamine;dihydrochloride] | > 5.30 | 5 to 100 µM | – | –
NCCc1ccccc1C#Cc1cnc(N2CCNCC2)c(Cl)c1 [Example 90, 2-[2-[2-(5-chloro-6-piperazin-1-yl-3-pyridyl)ethynyl]phenyl]ethanamine; 2,2,2-trifluoroacetic acid] | > 5.30 | 5 to 100 µM | – | –
NCc1cc(-c2ccc3nc(N4CCNCC4)c(Cl)cc3c2)cc(C(F)(F)F)c1 [Example 125, [3-(3-chloro-2-piperazin-1-yl-6-quinolyl)-5-(trifluoromethyl)phenyl]methanamine;dihydrochloride] | > 5.30 | – | – | 5 to 100 µM
NCc1cc(-c2ccc3nc(N4CCNCC4)c(Cl)cc3c2)ccc1C(F)(F)F [Example 129, [5-(3-chloro-2-piperazin-1-yl-6-quinolyl)-2-(trifluoromethyl)phenyl]methanamine;dihydrochloride] | > 5.30 | 5 to 100 µM | – | –
NCc1ccccc1-c1ccc2nc(N3CCNCC3)c(Cl)cc2c1 [Example 111, [2-(3-chloro-2-piperazin-1-yl-6-quinolyl)phenyl]methanamine;dihydrochloride] | > 5.30 | 5 to 100 µM | – | –
Cc1ccc(-c2ccc3nc(N4CCNCC4)c(Cl)cc3c2)cc1CN [Example 126, [5-(3-chloro-2-piperazin-1-yl-6-quinolyl)-2-methyl-phenyl]methanamine;dihydrochloride] | > 5.30 | 5 to 100 µM | – | –
